What was measured:
Experiment in all cases: ATPase profile (ATP acyl phosphate probe)
Type in all cases: binding
HSP90B2P, TRA1 = target: T1, HSP90B2P, TRA1 (Homo sapiens, UniProt P14625); settings: TRA1, SEQ ID NO: 99, ATP BS, read-out: Inhibition (%) by 1 μM Z36-MP5
T1 construct: to get the native cell lysate; endogenous in cells; host or cells: A375

UBA6 = target: T2, UBA6 (Homo sapiens, UniProt A0AVT1); settings: UBA6, SEQ ID NO: 222, ATP BS
T2 construct: to get the native cell lysate; endogenous in cells; host or cells: A375 cell lysate
T2 sequence (A0AVT1 whole entry): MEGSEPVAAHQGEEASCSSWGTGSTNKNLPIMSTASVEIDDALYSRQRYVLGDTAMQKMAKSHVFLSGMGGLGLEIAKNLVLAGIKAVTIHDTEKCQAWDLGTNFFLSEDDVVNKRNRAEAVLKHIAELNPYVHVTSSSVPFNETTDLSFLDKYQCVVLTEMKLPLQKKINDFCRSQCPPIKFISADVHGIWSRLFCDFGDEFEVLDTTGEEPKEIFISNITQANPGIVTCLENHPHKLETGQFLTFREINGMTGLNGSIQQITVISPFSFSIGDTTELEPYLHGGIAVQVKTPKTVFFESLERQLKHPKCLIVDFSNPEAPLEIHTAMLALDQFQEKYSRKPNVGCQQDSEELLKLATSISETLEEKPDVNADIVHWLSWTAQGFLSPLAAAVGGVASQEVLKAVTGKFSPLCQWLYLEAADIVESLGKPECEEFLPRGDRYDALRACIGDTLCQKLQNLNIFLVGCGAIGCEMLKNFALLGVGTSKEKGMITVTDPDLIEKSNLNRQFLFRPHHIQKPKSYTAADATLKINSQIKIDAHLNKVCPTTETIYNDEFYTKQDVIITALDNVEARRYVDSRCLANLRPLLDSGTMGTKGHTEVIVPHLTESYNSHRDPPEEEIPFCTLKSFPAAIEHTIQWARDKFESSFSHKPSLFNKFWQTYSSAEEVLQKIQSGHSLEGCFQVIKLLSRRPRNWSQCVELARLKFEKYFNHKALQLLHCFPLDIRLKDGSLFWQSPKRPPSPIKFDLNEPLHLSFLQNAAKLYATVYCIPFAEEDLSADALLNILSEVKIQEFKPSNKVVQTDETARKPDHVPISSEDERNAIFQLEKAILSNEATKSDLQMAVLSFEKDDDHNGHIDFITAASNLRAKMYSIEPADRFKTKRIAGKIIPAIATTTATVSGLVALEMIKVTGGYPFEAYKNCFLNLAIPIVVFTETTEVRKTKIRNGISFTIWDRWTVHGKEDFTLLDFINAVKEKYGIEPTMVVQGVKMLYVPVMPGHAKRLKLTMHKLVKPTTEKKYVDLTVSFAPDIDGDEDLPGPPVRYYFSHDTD

CPS1 = target: T3, CPS1 (Homo sapiens, UniProt P31327); settings: CPS1, SEQ ID NO: 64, labeling site Other
T3 construct: endogenous in cells; host or cells: A375 cell lysate
T3 sequence (P31327 39-1500): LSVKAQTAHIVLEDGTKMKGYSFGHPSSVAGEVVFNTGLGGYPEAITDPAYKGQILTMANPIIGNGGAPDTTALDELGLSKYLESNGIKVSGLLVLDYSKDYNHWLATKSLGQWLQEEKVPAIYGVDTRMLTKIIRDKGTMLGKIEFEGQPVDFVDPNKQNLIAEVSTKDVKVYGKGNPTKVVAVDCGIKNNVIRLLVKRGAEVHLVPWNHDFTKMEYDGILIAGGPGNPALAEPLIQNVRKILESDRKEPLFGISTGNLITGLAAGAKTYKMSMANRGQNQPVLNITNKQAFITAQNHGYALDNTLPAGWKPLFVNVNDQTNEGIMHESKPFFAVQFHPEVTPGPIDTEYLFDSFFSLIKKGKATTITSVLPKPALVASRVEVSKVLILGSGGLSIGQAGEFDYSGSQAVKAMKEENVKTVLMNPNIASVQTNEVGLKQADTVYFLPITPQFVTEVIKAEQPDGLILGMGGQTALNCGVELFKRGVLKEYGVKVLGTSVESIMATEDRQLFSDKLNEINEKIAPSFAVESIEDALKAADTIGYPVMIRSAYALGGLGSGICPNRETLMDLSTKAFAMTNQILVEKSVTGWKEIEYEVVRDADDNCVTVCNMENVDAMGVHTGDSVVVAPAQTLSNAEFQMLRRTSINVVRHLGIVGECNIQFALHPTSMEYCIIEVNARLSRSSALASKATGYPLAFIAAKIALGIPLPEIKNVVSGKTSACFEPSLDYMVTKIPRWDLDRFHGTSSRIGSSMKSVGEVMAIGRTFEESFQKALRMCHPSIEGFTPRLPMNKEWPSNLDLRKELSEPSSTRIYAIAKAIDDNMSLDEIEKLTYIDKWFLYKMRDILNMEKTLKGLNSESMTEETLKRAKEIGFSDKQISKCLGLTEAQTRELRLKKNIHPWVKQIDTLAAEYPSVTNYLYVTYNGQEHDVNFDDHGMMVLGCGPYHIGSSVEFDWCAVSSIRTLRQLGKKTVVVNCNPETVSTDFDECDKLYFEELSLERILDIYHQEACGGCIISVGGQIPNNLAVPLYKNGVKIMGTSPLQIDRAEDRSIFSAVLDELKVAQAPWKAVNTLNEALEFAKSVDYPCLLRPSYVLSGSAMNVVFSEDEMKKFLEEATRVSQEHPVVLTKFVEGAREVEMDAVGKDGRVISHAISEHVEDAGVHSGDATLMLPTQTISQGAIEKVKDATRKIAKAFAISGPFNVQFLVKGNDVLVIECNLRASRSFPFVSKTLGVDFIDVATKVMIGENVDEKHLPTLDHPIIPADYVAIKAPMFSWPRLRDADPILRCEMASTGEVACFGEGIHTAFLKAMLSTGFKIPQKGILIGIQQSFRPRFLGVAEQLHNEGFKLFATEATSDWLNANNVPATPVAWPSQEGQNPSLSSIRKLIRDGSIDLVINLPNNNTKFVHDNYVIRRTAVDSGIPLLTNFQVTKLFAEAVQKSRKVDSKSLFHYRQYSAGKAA

PFAS = target: T4, PFAS (Homo sapiens, UniProt O15067); settings: SEQ ID NO: 157, ATP BS
T4 construct: to get the native cell lysate; endogenous in cells; host or cells: A375 cell lysate
T4 sequence (O15067 whole entry): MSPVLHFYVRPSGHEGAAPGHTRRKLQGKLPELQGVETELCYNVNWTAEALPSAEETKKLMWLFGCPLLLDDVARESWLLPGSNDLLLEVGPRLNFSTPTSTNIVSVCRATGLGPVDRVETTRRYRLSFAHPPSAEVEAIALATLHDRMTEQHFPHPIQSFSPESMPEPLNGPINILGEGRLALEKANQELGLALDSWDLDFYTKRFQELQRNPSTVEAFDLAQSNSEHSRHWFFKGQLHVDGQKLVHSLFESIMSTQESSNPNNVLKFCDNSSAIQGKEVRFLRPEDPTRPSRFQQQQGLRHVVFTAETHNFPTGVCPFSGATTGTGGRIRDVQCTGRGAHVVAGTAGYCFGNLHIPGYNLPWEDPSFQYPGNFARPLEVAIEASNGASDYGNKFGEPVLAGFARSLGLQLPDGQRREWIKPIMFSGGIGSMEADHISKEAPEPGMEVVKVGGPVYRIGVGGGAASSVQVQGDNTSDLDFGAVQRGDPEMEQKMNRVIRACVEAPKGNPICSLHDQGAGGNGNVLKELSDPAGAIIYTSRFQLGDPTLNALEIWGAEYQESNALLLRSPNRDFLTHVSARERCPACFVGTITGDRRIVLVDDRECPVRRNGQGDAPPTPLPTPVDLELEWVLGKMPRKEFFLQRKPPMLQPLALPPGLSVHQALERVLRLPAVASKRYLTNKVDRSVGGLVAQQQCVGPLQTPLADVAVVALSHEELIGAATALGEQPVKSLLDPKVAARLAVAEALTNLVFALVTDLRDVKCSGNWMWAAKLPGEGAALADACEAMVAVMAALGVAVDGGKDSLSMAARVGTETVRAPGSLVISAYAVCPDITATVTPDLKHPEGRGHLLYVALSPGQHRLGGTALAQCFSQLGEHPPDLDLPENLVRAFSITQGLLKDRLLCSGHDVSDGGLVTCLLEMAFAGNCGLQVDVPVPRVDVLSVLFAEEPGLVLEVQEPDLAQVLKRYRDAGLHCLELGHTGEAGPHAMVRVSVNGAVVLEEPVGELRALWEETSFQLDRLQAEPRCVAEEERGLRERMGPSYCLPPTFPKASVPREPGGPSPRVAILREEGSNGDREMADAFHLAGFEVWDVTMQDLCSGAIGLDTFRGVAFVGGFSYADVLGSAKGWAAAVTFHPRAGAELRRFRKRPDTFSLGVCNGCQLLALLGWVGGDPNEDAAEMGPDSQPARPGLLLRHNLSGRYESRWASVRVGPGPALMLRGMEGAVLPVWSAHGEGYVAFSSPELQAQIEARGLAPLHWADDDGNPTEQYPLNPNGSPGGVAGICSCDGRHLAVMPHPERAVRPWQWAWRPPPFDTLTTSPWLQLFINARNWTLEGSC

BAT1, DDX39 = settings: BAT1, DDX39, SEQ ID NO: 50, ATP BS
TRA1 = target: T5, TRA1 (Homo sapiens, UniProt P14625); settings: TRA1, SEQ ID NO: 208, ATP BS
T5 construct: to get the native cell lysate; endogenous in cells; host or cells: A375 cell lysate

HSP90AB1 = target: T6, HSP90AB1 (Homo sapiens, UniProt P08238); settings: HSP90AB1, SEQ ID NO: 97, ATP BS
T6 construct: to get the native cell lysate; endogenous in cells; host or cells: A375
T6 sequence (P08238 whole entry): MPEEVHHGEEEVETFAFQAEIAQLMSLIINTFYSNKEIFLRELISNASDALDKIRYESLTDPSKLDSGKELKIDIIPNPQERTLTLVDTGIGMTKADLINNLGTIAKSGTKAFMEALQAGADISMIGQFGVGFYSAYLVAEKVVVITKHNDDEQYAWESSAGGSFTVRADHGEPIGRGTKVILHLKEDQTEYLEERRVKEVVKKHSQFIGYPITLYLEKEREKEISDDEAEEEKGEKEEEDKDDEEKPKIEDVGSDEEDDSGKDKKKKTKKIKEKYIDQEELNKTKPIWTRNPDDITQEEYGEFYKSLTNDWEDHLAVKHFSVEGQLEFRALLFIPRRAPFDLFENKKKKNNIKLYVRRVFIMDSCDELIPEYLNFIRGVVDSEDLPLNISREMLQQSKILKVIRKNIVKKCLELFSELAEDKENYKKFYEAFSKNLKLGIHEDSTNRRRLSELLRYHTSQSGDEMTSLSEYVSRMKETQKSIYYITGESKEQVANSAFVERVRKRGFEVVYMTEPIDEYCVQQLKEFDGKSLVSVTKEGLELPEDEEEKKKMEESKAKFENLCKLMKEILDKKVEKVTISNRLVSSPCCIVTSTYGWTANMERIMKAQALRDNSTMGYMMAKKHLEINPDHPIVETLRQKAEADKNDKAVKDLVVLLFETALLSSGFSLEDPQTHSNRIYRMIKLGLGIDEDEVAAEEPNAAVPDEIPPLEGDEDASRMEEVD

IDI1 = target: T7, IDI1 (Homo sapiens, UniProt Q13907); settings: IDI1, SEQ ID NO: 111, ATP BS
T7 construct: endogenous in cells; host or cells: A375
T7 sequence (Q13907 whole entry): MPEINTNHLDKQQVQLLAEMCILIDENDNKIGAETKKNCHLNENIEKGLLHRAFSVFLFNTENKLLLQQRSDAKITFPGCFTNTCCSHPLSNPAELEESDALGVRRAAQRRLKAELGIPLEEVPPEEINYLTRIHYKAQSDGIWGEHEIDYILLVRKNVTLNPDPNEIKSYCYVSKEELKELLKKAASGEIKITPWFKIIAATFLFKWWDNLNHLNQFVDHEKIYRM

Cn1c(=O)[nH]c2ccc(-c3cccc(C(=O)NC4CCn5ccnc5C4)c3)cc21 (centres unmarked) [Z36-MP5, 3-(3-methyl-2-oxo-2,3-dihydro-1H-benzo[d]imidazol-5-yl)-N-(5,6,7,8-tetrahydroimidazo[1,2-a]pyridin-7-yl)benzamide] was tested, and the inhibition at 1 µM (HSP90B2P, TRA1) was -6.72%, the “Inhibition (%) by 1 μM Z36-MP5” value (UBA6) was 3.60% and the “Inhibition (%) by 1 μM Z36-MP5” value (CPS1) was 1.16%. The “Inhibition (%) by 1 μM Z36-MP5” value (PFAS) was −4.58%, the “Inhibition (%) by 1 μM Z36-MP5” value (BAT1, DDX39) was −10.93% and the “Inhibition (%) by 1 μM Z36-MP5” value (TRA1) was −8.56%. For the same compound, the “Inhibition (%) by 1 μM Z36-MP5” value (HSP90AB1) was −3.22% and the “Inhibition (%) by 1 μM Z36-MP5” value (IDI1) was 5.48%.
